Literature values in patent US7015235B2, “Acylated piperidine derivatives as melanocortin-4 receptor agonists” (priority 2001, dated 2006).

Test system: men

Cc1ccc(N(CC2=NCCN2)c2cccc(O)c2)cc1 [phentolamine]
duration of effect (after an oral dose): 2 h | onset of action (after an oral dose): 5 to 30 min | share of men/patients with adequate response (oral): 35–40%
